Measured values from patent US20250352520A1, “USE OF DEXPRAMIPEXOLE FOR THE TREATMENT OF EOSINOPHILIC COPD” (Areteia Therapeutics, Inc., priority 2024, published 2025).
Where two headings read alike, the source gives them in different places.

Legend:
[1] = for CT Scan - Mucus Score, Change from Baseline / CT Scan - Mucus Score, Result: Week 16
From the text: Mucus dysfunction, a central pathology in patients with COPD, is characterized by excess mucus production, hypersecretion, and reduced clearance, leading to accumulation in the airways as mucus plugs. Computed tomography (CT) scans of individuals with COPD can be assessed by a physician or clinician trained in lung imaging. Mucus plug scoring is assigned based on the number of lung segments with mucus plugs, ranging from 0 (no mucus plugs seen on CT scan) to 20 (all lung segments with mucus plugs).
(§1) All eligible participants received inspiratory and expiratory CT scans at Baseline and at Week 16 to assess for changes in mucus plugs and airway architecture (e.g., changes in airway wall thickness).
[…] underwent at CT scan with mucus plug scoring.

[2] = for CT Scan - Small Airways Disease, Change from Baseline / CT Scan - Small Airways Disease, Result / CT Scan Parametric Imaging - Emphysema, Change from Baseline / CT Scan Parametric Imaging - Emphysema, Result / CT Scan - Air Trapping Index -856 HU, Change from Baseline / CT Scan - Air Trapping Index -856 HU, Result: Week 16; for CT Scan - Air Trapping Index -856 HU, Change from Baseline: first Change column under heads Inspiratory | Expiratory; for CT Scan - Air Trapping Index -856 HU, Result: first Result column under heads Inspiratory | Expiratory
From the text: as §1

[3] = for SGRQ-C Questionnaire - Total Score, CFB (Change from baseline), Max / SGRQ-C Questionnaire - Total Score, CFB (Change from baseline), Mean ± SD / SGRQ-C Questionnaire - Total Score, CFB (Change from baseline), Median / SGRQ-C Questionnaire - Total Score, CFB (Change from baseline), Min / SGRQ-C Questionnaire - Total Score, CFB (Change from baseline), Q1 / SGRQ-C Questionnaire - Total Score, CFB (Change from baseline), Q3 / SGRQ-C Questionnaire - Total Score, Observed, Max / SGRQ-C Questionnaire - Total Score, Observed, Mean ± SD / SGRQ-C Questionnaire - Total Score, Observed, Median / SGRQ-C Questionnaire - Total Score, Observed, Min / SGRQ-C Questionnaire - Total Score, Observed, Q1 / SGRQ-C Questionnaire - Total Score, Observed, Q3: Week 16, 150 mg BID
From the text: The SGRQ-C questionnaire was developed from the SGRQ which was designed to measure health impairment in patients with asthma and COPD. The SGRQ-C is a shorter version (40 items compared with 50 items in SGRQ) derived from the original version following detailed analysis of data from large studies in COPD. The FDA has stated that the SGRQ-C is acceptable for use as either a co-primary endpoint or as a secondary endpoint providing supporting evidence of efficacy in a clinical trial. In this study, assessment of SGRQ-C was a secondary endpoint.
The SGRQ-C total score is made up of three components: (1) symptoms frequency and severity of symptoms; (2) activity effect of disease on common daily physical activities; and (3) impacts psychosocial effects of the disease.
The threshold for a clinically significant difference between groups of participants and for changes within groups of participants was four units.

[4] = for COPD Assessment - Total Score, CFB (Change from baseline), Max / COPD Assessment - Total Score, CFB (Change from baseline), Mean ± SD / COPD Assessment - Total Score, CFB (Change from baseline), Median / COPD Assessment - Total Score, CFB (Change from baseline), Min / COPD Assessment - Total Score, CFB (Change from baseline), Q1 / COPD Assessment - Total Score, CFB (Change from baseline), Q3 / COPD Assessment - Total Score, Observed, Max / COPD Assessment - Total Score, Observed, Mean ± SD / COPD Assessment - Total Score, Observed, Median / COPD Assessment - Total Score, Observed, Min / COPD Assessment - Total Score, Observed, Q1 / COPD Assessment - Total Score, Observed, Q3: Week 16, 150 mg BID
From the text: The CAT is a participant-completed instrument that can quantify the impact of COPD on the participant's health. It complements existing approaches to assessing COPD, such as FEV1 measurement.
The CAT has a scoring range of 0-40 (0 to 5 on 8 questions) with higher numbers indicating more severe symptoms.

[5] = test system: eosinophils in blood and airways; settings: 150 mg BID dexpramipexole dihydrochloride; up to approximately
[6] = Phase III, participants with ALS; cited from earlier work
[7] = <50% AEC reduction at Week 16 (N = 4)
[8] = >=50% AEC reduction at Week 16 (N = 3)

CCCN[C@@H]1CCc2nc(N)sc2C1 [Dexpramipexole, (6R)-2-amino-4,5,6,7-tetrahydro-6-(propylamino)benzothiazole]
CT Scan - Mucus Score, Change from Baseline ([1]; Subject ID 10001-001-0001): 0.00 | CT Scan - Mucus Score, Result ([1]; Subject ID 10001-001-0001): 1.00 | CT Scan - Mucus Score, Change from Baseline ([1]; Subject ID 10001-001-0002): 0.00 | CT Scan - Mucus Score, Result ([1]; Subject ID 10001-001-0002): 0.00 | CT Scan - Mucus Score, Change from Baseline ([1]; Subject ID 10001-008-0002): 3.00 | CT Scan - Mucus Score, Result ([1]; Subject ID 10001-008-0002): 3.00 | CT Scan - Mucus Score, Change from Baseline ([1]; Subject ID 10001-010-0005): 0.00 | CT Scan - Mucus Score, Result ([1]; Subject ID 10001-010-0005): 0.00 | CT Scan - Mucus Score, Change from Baseline ([1]; Subject ID 10001-022-0001): −4.00 | CT Scan - Mucus Score, Result ([1]; Subject ID 10001-022-0001): 0.00 | CT Scan - Mucus Score, Change from Baseline ([1]; Subject ID 10001-022-0006): 3.00 | CT Scan - Mucus Score, Result ([1]; Subject ID 10001-022-0006): 6.00 | mucus plug score ([1]; one patient, week 16, score of 4 at baseline): 0 | CT Scan - Small Airways Disease, Change from Baseline ([2]; Subject ID 10001-001-0001): −7.12 | CT Scan - Small Airways Disease, Result ([2]; Subject ID 10001-001-0001): 25.72 | CT Scan Parametric Imaging - Emphysema, Change from Baseline ([2]; Subject ID 10001-001-0001): 2.41 | CT Scan Parametric Imaging - Emphysema, Result ([2]; Subject ID 10001-001-0001): 36.28 | CT Scan - Air Trapping Index -856 HU, Change from Baseline ([2]; Subject ID 10001-001-0001): −0.29% | CT Scan - Air Trapping Index -856 HU, Result ([2]; Subject ID 10001-001-0001): 49.57% | CT Scan - Small Airways Disease, Change from Baseline ([2]; Subject ID 10001-008-0002): 2.18 | CT Scan - Small Airways Disease, Result ([2]; Subject ID 10001-008-0002): 51.14 | CT Scan Parametric Imaging - Emphysema, Change from Baseline ([2]; Subject ID 10001-008-0002): −0.73 | CT Scan Parametric Imaging - Emphysema, Result ([2]; Subject ID 10001-008-0002): 35.88 | CT Scan - Air Trapping Index -856 HU, Change from Baseline ([2]; Subject ID 10001-008-0002): 0.57% | CT Scan - Air Trapping Index -856 HU, Result ([2]; Subject ID 10001-008-0002): 68.06% | CT Scan - Small Airways Disease, Change from Baseline ([2]; Subject ID 10001-010-0005): −3.80 | CT Scan - Small Airways Disease, Result ([2]; Subject ID 10001-010-0005): 39.08 | CT Scan Parametric Imaging - Emphysema, Change from Baseline ([2]; Subject ID 10001-010-0005): 0.16 | CT Scan Parametric Imaging - Emphysema, Result ([2]; Subject ID 10001-010-0005): 12.11 | CT Scan - Air Trapping Index -856 HU, Change from Baseline ([2]; Subject ID 10001-010-0005): −2.18% | CT Scan - Air Trapping Index -856 HU, Result ([2]; Subject ID 10001-010-0005): 29.57% | CT Scan - Small Airways Disease, Change from Baseline ([2]; Subject ID 10001-022-0001): −4.12 | CT Scan - Small Airways Disease, Result ([2]; Subject ID 10001-022-0001): 46.36 | CT Scan Parametric Imaging - Emphysema, Change from Baseline ([2]; Subject ID 10001-022-0001): −4.75 | CT Scan Parametric Imaging - Emphysema, Result ([2]; Subject ID 10001-022-0001): 8.59 | CT Scan - Air Trapping Index -856 HU, Change from Baseline ([2]; Subject ID 10001-022-0001): −11.40% | CT Scan - Air Trapping Index -856 HU, Result ([2]; Subject ID 10001-022-0001): 27.88% | CT scoring for small airway disease ([2]; all patients): All patients showed an improvement in scoring | CT scoring for Air Trapping, change ([2]; one patient): −11.40 | CT scoring for emphysema, decrease ([2]; one patient): 4.75 points | CT scoring for small airway disease, improvement ([2]; one patient): 7.12 points | SGRQ-C total score, decrease compared to baseline ([3]; AECR≥0.5 patients, 16 weeks): 12.08 points | SGRQ-C Questionnaire - Total Score, CFB (Change from baseline), Max [3, 7]: 3.9 | SGRQ-C Questionnaire - Total Score, CFB (Change from baseline), Mean ± SD [3, 7]: −4.15 ± 6.817 | SGRQ-C Questionnaire - Total Score, CFB (Change from baseline), Median [3, 7]: −5.18 | SGRQ-C Questionnaire - Total Score, CFB (Change from baseline), Min [3, 7]: −10.1 | SGRQ-C Questionnaire - Total Score, CFB (Change from baseline), Q1 [3, 7]: −9.8 | SGRQ-C Questionnaire - Total Score, CFB (Change from baseline), Q3 [3, 7]: 1.5 | SGRQ-C Questionnaire - Total Score, Observed, Max [3, 7]: 63.2 | SGRQ-C Questionnaire - Total Score, Observed, Mean ± SD [3, 7]: 45.45 ± 19.893 | SGRQ-C Questionnaire - Total Score, Observed, Median [3, 7]: 50.64 | SGRQ-C Questionnaire - Total Score, Observed, Min [3, 7]: 17.3 | SGRQ-C Questionnaire - Total Score, Observed, Q1 [3, 7]: 32.1 | SGRQ-C Questionnaire - Total Score, Observed, Q3 [3, 7]: 58.8 | SGRQ-C Questionnaire - Total Score, CFB (Change from baseline), Max [3, 8]: −6.2 | SGRQ-C Questionnaire - Total Score, CFB (Change from baseline), Mean ± SD [3, 8]: −12.08 ± 5.544 | SGRQ-C Questionnaire - Total Score, CFB (Change from baseline), Median [3, 8]: −12.76 | SGRQ-C Questionnaire - Total Score, CFB (Change from baseline), Min [3, 8]: −17.2 | SGRQ-C Questionnaire - Total Score, CFB (Change from baseline), Q1 [3, 8]: −17.2 | SGRQ-C Questionnaire - Total Score, CFB (Change from baseline), Q3 [3, 8]: −6.2 | SGRQ-C Questionnaire - Total Score, Observed, Max [3, 8]: 45.0 | SGRQ-C Questionnaire - Total Score, Observed, Mean ± SD [3, 8]: 40.39 ± 7.250 | SGRQ-C Questionnaire - Total Score, Observed, Median [3, 8]: 44.09 | SGRQ-C Questionnaire - Total Score, Observed, Min [3, 8]: 32.0 | SGRQ-C Questionnaire - Total Score, Observed, Q1 [3, 8]: 32.0 | SGRQ-C Questionnaire - Total Score, Observed, Q3 [3, 8]: 45.0 | CAT total score, decrease compared to baseline ([4]; AECR≥0.5 patients, week 16): 8.7 points | COPD Assessment - Total Score, CFB (Change from baseline), Max [4, 7]: 0 | COPD Assessment - Total Score, CFB (Change from baseline), Mean ± SD [4, 7]: −1.8 ± 1.50 | COPD Assessment - Total Score, CFB (Change from baseline), Median [4, 7]: −2.0 | COPD Assessment - Total Score, CFB (Change from baseline), Min [4, 7]: −3 | COPD Assessment - Total Score, CFB (Change from baseline), Q1 [4, 7]: −3 | COPD Assessment - Total Score, CFB (Change from baseline), Q3 [4, 7]: −1 | COPD Assessment - Total Score, Observed, Max [4, 7]: 24 | COPD Assessment - Total Score, Observed, Mean ± SD [4, 7]: 17.5 ± 8.27 | COPD Assessment - Total Score, Observed, Median [4, 7]: 20.0 | COPD Assessment - Total Score, Observed, Min [4, 7]: 6 | COPD Assessment - Total Score, Observed, Q1 [4, 7]: 12 | COPD Assessment - Total Score, Observed, Q3 [4, 7]: 24 | COPD Assessment - Total Score, CFB (Change from baseline), Max [4, 8]: −8 | COPD Assessment - Total Score, CFB (Change from baseline), Mean ± SD [4, 8]: −8.7 ± 1.15 | COPD Assessment - Total Score, CFB (Change from baseline), Median [4, 8]: −8.0 | COPD Assessment - Total Score, CFB (Change from baseline), Min [4, 8]: −10 | COPD Assessment - Total Score, CFB (Change from baseline), Q1 [4, 8]: −10 | COPD Assessment - Total Score, CFB (Change from baseline), Q3 [4, 8]: −8 | COPD Assessment - Total Score, Observed, Max [4, 8]: 23 | COPD Assessment - Total Score, Observed, Mean ± SD [4, 8]: 16.3 ± 5.86 | COPD Assessment - Total Score, Observed, Median [4, 8]: 14.0 | COPD Assessment - Total Score, Observed, Min [4, 8]: 12 | COPD Assessment - Total Score, Observed, Q1 [4, 8]: 12 | COPD Assessment - Total Score, Observed, Q3 [4, 8]: 23 | reductions of eosinophils in blood and airways [5]: ≤ 80% | absolute eosinophil count (AEC) [6]: substantial, durable, and targeted reduction | efficacy in ALS [6]: failed to demonstrate efficacy
